{
  "source": "patent US4410537A",
  "about": "“Pharmaceutical ethers” (Burroughts Wellcome Co., priority 1979, dated 1983)",
  "key": {"[1]": {"tested_on": "haemoglobin", "test": "Effect on the oxygen-dissociation curve of whole normal human blood in vitro", "assay_type": "cell-based", "settings": "for Mean p50: normal human blood, 30 mins, 37° C., control 26.0", "description": "(§1) Compound (Ia) was dissolved in isotonic saline containing sodium bicarbonate 25 mM. […] The mixtures were incubated (30 mins, 37° C.) and the oxygen-dissociation curve for each then measured using a whole-blood spectrophotometer (Hem-O-Scan, Trade Name)."}, "[2]": {"tested_on": "haemoglobin", "test": "Effect on the oxygen-dissociation curve of whole rat blood in vitro", "assay_type": "cell-based", "description": "as §1\nBlood (6.5 ml) from an adult albino rat, exsanguinated via the abdominal aorta under ether anaesthesia, was mixed with acid-citratedextrose anticoagulant (1.5 ml). […] Both samples were incubated (30 mins, 37° C.) and the oxygen-dissociation curve of each measured as in (A)."}, "[3]": {"tested_on": "haemoglobin", "test": "Effect on the oxygen-dissociation curve of whole rat blood in vivo", "settings": "for Mean p50: 1 hour, rat", "description": "as §1\nFemale albino rats (100-120 g) were fasted for 24 hrs with water available ad lib. Compound (Ia) was dissolved in isotonic saline containing sodium bicarbonate 25 mM and administered to two rats orally (500 mg/kg) and to two rats intravenously (100 mg/kg): appropriate vehicle controls were administered simultaneously to control animals. After 1 hour all animals were exsanguinated via the abdominal aorta under chloroform anaesthesia: 2.5 ml of blood from each was mixed with disodium edetate (anticoagulant) and the oxygen-dissociation curve of each sample measured as in (A)."}, "[4]": {"tested_on": "haemoglobin", "test": "Effect on the oxygen-dissociation curve of whole homozygous human sickle-cell blood in vitro", "assay_type": "cell-based", "description": "Compound (Ia) was dissolved in isotonic saline containing sodium bicarbonate 25 mM. […]\nHomozygous human sickle-cell blood (4 vols) was mixed with acid-citrate-dextrose anticoagulant (1 vol) and a portion of the mixture set aside as a control."}, "[5]": {"tested_on": "whole homozygous human sickle-cell blood", "test": "Effect on sickling in vitro of whole homozygous human sickle-cell blood", "assay_type": "cell-based", "settings": "3.0 mM, 60 mins, oxygen tension about 28 mm Hg; about 50% sickled at start; controls nearly 70%"}, "[6]": {"test": "Acute oral toxicity in mice", "settings": "mouse, in vivo, solution in sodium bicarbonate-saline"}, "[7]": {"tested_on": "anaesthetized rats", "test": "Cardiovascular effects in anaesthetized rats", "assay_type": "in vivo, rat", "description": "Male Wistar rats weighing between 250-350 g were used. Anaesthesia was induced with 3-5% halothane in oxygen and maintained with a mixture of chloralose (60 mg/kg i.v.) and pentobarbitone (20 mg/kg i.v.). A femoral vein was cannulated for the administration of drugs and the ipsilateral femoral artery for measuring arterial blood pressure; heart rate was derived from the femoral pulse by a cardiotachometer. Body temperature was maintained at 38° C.\nFive test rats were each given a series of increasing doses of compound (Ia) as a solution in 10%-saturated sodium bicarbonate (saturated sodium bicarbonate solution diluted 1:9). Sufficient time was allowed between doses for the variables to return either to the pre-dose level or to a steady state if full recovery was not attained. Measurements were made 2 mins. after dose or at maximum effect.\nControl rats (3) were given a series of 0.2 ml. injections of the sodium bicarbonate vehicle (up to 15 injections) to assess any effect of sodium bicarbonate and of increasing extracellular fluid volume on blood pressure and heart rate."}},
  "data": [
    {"smiles": "O=Cc1c(O)cccc1OCCCCC(=O)O", "note": "[Example 1, 5-(2-formyl-3-hydroxyphenoxy)pentanoic acid]", "values": [
      {"measurement": "Mean p50", "setting": "[1]; 0.3 mM", "value": 25.5, "unit": "mm. Hg"},
      {"measurement": "Mean p50", "setting": "[1]; 1.0 mM", "value": 21.5, "unit": "mm. Hg"},
      {"measurement": "Mean p50", "setting": "[1]; 3.0 mM", "value": 9.0, "unit": "mm. Hg"},
      {"measurement": "displacement of the oxygen-dissociation curve", "setting": "[1]; whole normal human blood in vitro", "value": "dose-related left-displacement"},
      {"measurement": "Mean p50", "setting": "[2]; 3.0 mM, rat blood in vitro, 30 mins, 37° C., control 44.5", "value": 8.2, "unit": "mm. Hg"},
      {"measurement": "displacement of the oxygen-dissociation curve", "setting": "[2]; whole rat blood in vitro", "value": "considerably left-displaced"},
      {"measurement": "Mean p50", "setting": "[3]; 100 mg/kg i.v., vehicle 43.37", "value": 22.37, "unit": "mm. Hg"},
      {"measurement": "Mean p50", "setting": "[3]; 500 mg/kg p.o., vehicle 42.75", "value": 10.25, "unit": "mm. Hg"},
      {"measurement": "displacement of the oxygen-dissociation curve", "setting": "[3]; whole rat blood in vivo", "value": "considerable left-displacement"},
      {"measurement": "Mean p50", "setting": "[4]; 3.0 mM, homozygous sickle-cell blood, 37° C., minimum 45 mins, three patients, control 51", "value": 10, "unit": "mm. Hg"},
      {"measurement": "displacement of the oxygen-dissociation curve", "setting": "[4]; whole homozygous (SS genotype) human sickle-cell blood in vitro", "value": "considerable left-displacement"},
      {"measurement": "proportion of sickled cells", "setting": "[5]", "value": "about 3%"},
      {"measurement": "LD50", "setting": "[6]", "value": "~1000", "unit": "mg/kg"},
      {"measurement": "change in blood pressure", "setting": "[7]; 32-128 mg/kg i.v., anaesthetized rats", "value": "Significant dose-dependent falls in pressure"},
      {"measurement": "change in heart rate", "setting": "[7]; after the 64 mg/kg dose, three rats, not statistically significant", "value": "slight tachycardia"},
      {"measurement": "change in heart rate", "setting": "[7]; anaesthetized rats, i.v.", "value": "no marked changes in heart rate"},
      {"measurement": "time of blood pressure recovery after each dose", "setting": "[7]; anaesthetized rats, i.v.", "value": "≤ 15", "unit": "min"},
      {"measurement": "change in systolic, diastolic or mean blood pressures", "setting": "[7]; up to 16 mg/kg i.v., anaesthetized rats", "value": "no appreciable change"}
    ]}
  ]
}
